# Results from the supplement of paper PMC5412046.
# Where a name gives a salt, the structure may show the parent alone.
# Legend:
# SB.msgc-1 [1] = test: viability at highest tested concentration (MAXR) relative to DMSO; higher = less cytotoxic; conditions: SB.msgc-1 (sporadic gastric cancer)
# Method in brief: (§1)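 Patient-derived gastric cancer cells, hereditary or sporadic, were plated at 500 cells in 5 μL medium per well of a 1536-well plate and given 23 nL of compound in DMSO by pintool across 11 threefold dilutions. The top concentration was recorded for each compound. After 48 h, CellTiter-Glo was added for 30 min at room temperature and luminescence was read on a ViewLux. Values are viability normalised to DMSO, taken either at the highest concentration or as trapezoidal area under the curve.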
# SB.mhdgc-1 [2] = test: as above; conditions: SB.mhdgc-1 (hereditary c.1380delA CDH1 gastric cancer)
# Method in brief: as §1
# SB.msgc-1 [3] = test: area under the dose-response curve of % viability (trapezoidal, 11 doses) (% viability x log10 concentration); higher = less cytotoxic; conditions: SB.msgc-1 (sporadic gastric cancer)
# Method in brief: as §1
# SB.mhdgc-1 [4] = test: as above; conditions: SB.mhdgc-1 (hereditary c.1380delA CDH1 gastric cancer)
# Method in brief: as §1
Structure (SMILES),viability (SB.msgc-1 [1]) [%],viability (SB.mhdgc-1 [2]) [%],area under the dose-response curve (SB.msgc-1 [3]),area under the dose-response curve (SB.mhdgc-1 [4])
C[C@](O)(CS(=O)(=O)c1ccc(F)cc1)C(=O)Nc1ccc(C#N)c(C(F)(F)F)c1 [(R)-Bicalutamide] (top concentration 46.0829 µM),3.76,1.24,377,301
c1ccc(CNc2nc(NCc3ccccc3)c3ccccc3n2)cc1 (top concentration 46.0829 µM),19,0.751,456,448
Cn1c(=O)n(-c2ccc(C(C)(C)C#N)cc2)c2c3cc(-c4cnc5ccccc5c4)ccc3ncc21 [BEZ235] (top concentration 46.0829 µM),47.4,26.5,425,345
COc1ccccc1N1CCN(CC(O)COc2cccc3ccccc23)CC1 (centres undefined) [Naftopidil] (top concentration 46.0829 µM),102,87,572,536
COc1cc[nH]c2ncc(C(=O)C(=O)N3CCN(C(=O)c4ccccc4)C[C@H]3C)c1-2 (top concentration 46.0829 µM),115,81.9,589,482
CC(C)n1nc(-c2cc3cc(O)ccc3[nH]2)c2c(N)ncnc21 [PP-242] (top concentration 46.0829 µM),29.3,36.9,430,343
CNC(=O)c1ccc(N2C(=S)N(c3ccc(C#N)c(C(F)(F)F)c3)C(=O)C23CCC3)cc1F [RD-162] (top concentration 46.0829 µM),1.83,3.68,269,493
CO[C@H]1/C=C/O[C@@]2(C)Oc3c(C)c(O)c4c(O)c(c(/C=N\N5CCN(C6CCCC6)CC5)c(O)c4c3C2=O)NC(=O)/C(C)=C\C=C\[C@H](C)[C@H](O)[C@@H](C)[C@@H](O)[C@@H](C)[C@H](OC(C)=O)[C@@H]1C [Rifapentine] (top concentration 46.0829 µM),38.1,7.61,322,233
CC1(C)O[C@@H]2C[C@H]3[C@@H]4CCC5=CC(=O)C=C[C@]5(C)[C@@]4(F)[C@@H](O)C[C@]3(C)[C@]2(C(=O)CO)O1 [Triamcinolone acetonide] (top concentration 46.0829 µM),107,96.5,585,462
Nc1nc(N)nc(-c2cc(Cl)ccc2Cl)n1.O=C(O)/C=C\C(=O)O [Irsogladine maleate] (top concentration 46.0829 µM),102,76.8,530,521
NC1=NC=C(C=C1)C2=CC=C3N=CC\4=C(N(C(=O)\C=C4)C5=CC(=CC=C5)C(F)(F)F)C3=C2 [Torin-2] (top concentration 46.0829 µM),21.2,7.84,315,209
CC(C)(C)[C@H](NC(=O)c1ccc(N)c(Cl)c1)C(=O)N1CCC[C@H]1C(=O)N[C@H](C#N)CC(=O)O (top concentration 4.60829 µM),113,91.8,689,669
CC(=O)O[C@@]1(CC[C@H]2[C@@H]3\C=C(C)/C4=C/C(=O)CC[C@]4(C)[C@H]3CC[C@]12C)C(C)=O [Megestrol acetate] (top concentration 46.0829 µM),43.1,38.4,479,389
COc1ccc(Cc2nccc3cc(OC)c(OC)cc23)cc1OC [Papaverine hydrochloride] (top concentration 46.0829 µM),83.5,22.3,536,575
N#C/C(=C\c1ccc(O)c(O)c1)C(=O)NCc1ccccc1 [Tyrphostin B42] (top concentration 46.0829 µM),75,62.8,531,584
CC(C)(Sc1cc(C(C)(C)C)c(O)c(C(C)(C)C)c1)Sc1cc(C(C)(C)C)c(O)c(C(C)(C)C)c1 [Probucol] (top concentration 46.0829 µM),30.7,84.4,262,443
Nc1cc(c(cc1S(=O)(N)=O)S(N)(=O)=O)C(/Cl)=C(/Cl)Cl [Clorsulon] (top concentration 46.0829 µM),87.5,46.3,525,383
Nc1nc(N)c(N=O)c(OCC2CCCCC2)n1 [NU-6027] (top concentration 46.0829 µM),69.3,53.7,505,432
CN(c1ncccc1CNc1nc(Nc2ccc3c(c2)CC(=O)N3)ncc1C(F)(F)F)[S+](C)(=O)[O-] (top concentration 46.0829 µM),36,64.1,521,450
c1cc(N[C@@H]2CCNC2)nc(-c2cnc3ccc(-c4cn[nH]c4)cn23)c1 (top concentration 46.0829 µM),69.3,71.4,524,426
CCCCCCCCCCCCCCCC(=O)OC[C@@H](NC(=O)C(Cl)Cl)[C@H](O)c1ccc([N+](=O)[O-])cc1 [Chloramphenicol Palmitate] (top concentration 46.0829 µM),126,103,514,496
COC[C@H](c1ccc(C(F)(F)F)cc1)N1CCN(C2(C)CCN(C(=O)c3c(C)ncnc3C)CC2)C[C@H]1C.O=C(O)/C=C\C(=O)O [Vicriviroc] (top concentration 46.0829 µM),4.65,4.76,507,423
O=C(/C=C/c1ccc(CN(CCO)CCc2c[nH]c3ccccc23)cc1)NO [Dacinostat] (top concentration 46.0829 µM),7.9,4.22,282,357

Structure (SMILES),viability (SB.msgc-1 [1]) [%],viability (SB.mhdgc-1 [2]) [%],area under the dose-response curve (SB.msgc-1 [3]),area under the dose-response curve (SB.mhdgc-1 [4])
O=C1NC(=O)/C(=C/c2ccc3nccnc3c2)S1 (top concentration 23.0415 µM),45.2,32.1,540,506
CC(C)c1ccc2oc3nc(N)c(C(=O)O)cc3c(=O)c2c1 [Amlexanox] (top concentration 46.0829 µM),74.9,70,506,477
Cc1nnc(C(C)C)n1[C@@H]1C[C@H]2CC[C@@H](C1)N2CC[C@H](NC(=O)C1CCC(F)(F)CC1)c1ccccc1 [Maraviroc] (top concentration 46.0829 µM),3.08,3.79,417,445
COC(=O)c1ccc2c(c1)NC(=O)/C2=C(\Nc1ccc(N(C)C(=O)CN2CCN(C)CC2)cc1)c1ccccc1 [Vargatef] (top concentration 46.0829 µM),6.94,1.22,409,418
CCOC(=O)c1ncn2c1CN(C)C(=O)c1cc(F)ccc1-2 [Flumazenil] (top concentration 46.0829 µM),88,40.2,583,512
CN(C)CCN1C(=O)c2cccc3cc(N)cc(c23)C1=O [Amonafide] (top concentration 46.0829 µM),51.9,66.7,487,452
CCN1\C=C(C(O)=O)/C(=O)C2=C1C=C(N3CCN(C)CC3)C(=C2)F [Pefloxacin] (top concentration 46.0829 µM),117,96.3,617,545
C[C@H](NC(=O)/C(C#N)=C/c1cccc(Br)n1)c1ccccc1 [WP-1066] (top concentration 46.0829 µM),7.12,28.2,408,431
CC(C)NC[C@@H](C(=O)N1CCN(c2ncnc3c2[C@H](C)C[C@H]3O)CC1)c1ccc(Cl)cc1 [GDC-0068] (top concentration 46.0829 µM),38.4,9.98,421,324
COc1ccc(-c2ccc3cc(C(=O)O)ccc3c2)cc1C12CC3CC(CC(C3)C1)C2 [Adapalene] (top concentration 46.0829 µM),30.8,59.4,517,515
CNCc1ccc(-c2[nH]c3cc(F)cc4c3c2CCNC4=O)cc1 [Rucaparib] (top concentration 46.0829 µM),90.4,50.4,507,475
NC(=O)c1ncn([C@@H]2O[C@H](CO)[C@@H](O)[C@H]2O)c1O [Mizoribine] (top concentration 46.0829 µM),114,110,559,599
COc1cccc2c1C(=O)c1c(O)c3c(c(O)c1C2=O)C[C@@](O)(C(=O)CO)C[C@@H]3O[C@H]1C[C@H](N)[C@H](O[C@H]2CCCCO2)[C@H](C)O1 [Pirarubicin] (top concentration 46.0829 µM),31.3,22.4,437,367
COc1cc2ncnc(Nc3cccc(Br)c3)c2cc1OC (top concentration 46.0829 µM),33.3,27.1,339,282
CC1=CC=C(C=C1)N(C\C2=N\CCN2)C3=CC=CC(=C3)O [Phentolamine mesilate] (top concentration 46.0829 µM),72,70.1,577,532
CC1=C(/C=C/C(C)=C/C=C/C(C)=C/C(=O)O)C(C)(C)CCC1 [Tretinoin] (top concentration 46.0829 µM),42.4,75.3,467,445
FC1=CC=C(SC/2=N/N3\C=N/C(=O)/C(=C3/C=C2)C4=C(Cl)C=CC=C4Cl)C(=C1)F [VX-745] (top concentration 46.0829 µM),62,33.6,495,542
C/C(O)=C(\C#N)C(=O)Nc1cc(Br)ccc1Br [LFM-A13] (top concentration 46.0829 µM),74,93.3,536,528
CC(=O)O.Cc1c(-c2ccc(O)cc2)n(Cc2ccc(OCCN3CCCCCC3)cc2)c2ccc(O)cc12 [Bazedoxifene] (top concentration 46.0829 µM),61.8,85.4,293,561
OC[C@H]1O[C@H]([C@H](O)[C@@H]1O)N2\C=C/C(=O)NC2=O [Uridine] (top concentration 46.0829 µM),115,105,568,521
CN1[C@@H]2CC(O)C[C@H]1[C@@H]1O[C@@H]12 (some centres undefined) [Scopine] (top concentration 46.0829 µM),1.37,3.68,494,557
CC(C)C1=N[N](C\2=C1C(=O)N\C(=N2)CC3=CC=C(OCCO)C=C3)C4=C(Cl)C=CC=C4Cl (top concentration 46.0829 µM),24.2,21.9,353,274
COC1=CC(=CC=C1)C2=CC=C(NC(=O)/C3=C(/CCC3)C(O)=O)C(=C2)F [Vidofludimus] (top concentration 46.0829 µM),44.9,40.8,485,445
